Assay results: patent publication US8318899B2, “Lytic domain fusion constructs and methods of making and using same” (Board of Supervisors of Louisiana State University and …, priority 2008, dated 2012)
Entries after “also recorded” stand apart in the source; their conditions may differ.

Key:
[1] = test system: MDA-MB-435S.luc cells; assay: Cell toxicity (MTT) screening in MDA-MB-435S.luc breast cancer cells; type: cell-based, human; settings: relative to Phor21-βCG-ala (IC50 2.31 μM)
From the text: The human breast cancer cell line MDA-MB-435S.luc, which over expresses chorionic gonadotrophin (CG) and luteinizing hormone-releasing hormone (LHRH) receptors, was used to screen at passage numbers 248-252. The MDA-MB-435S.luc cell line was constructed from the MDA-MB-435S cell line obtained from the American Type Cell Culture Collection by stable transfection with the plasmid PRC/CMV-luc containing the Photinus pyralis luciferase gene and an […] by lipofection. The stably transfected cell line was selected using G418 and the clones with the highest expression for the luciferase gene were tested for their LH and LHRH receptor expression.
MDA-MB435S.luc cells were grown in Leibovitz's L 15 medium, 10% fetal bovine serum, 0.01 mg/ml bovine insulin, 100 IU/ml penicillin, 100 microg/ml streptomycin. The cells were cultured in tight closed flasks. The incubations were conducted using 96 well plates at 10,000 cells per well. Cells were typically seeded into 96 well plates and media was replaced after 48 hours of incubation. Each assay was conducted at increasing concentrations of 0, 0.001, 0.01, 0.05, 0.1, 0.5, 1, 2, 5, 10 and 100 micromolar doses of lytic peptide-binding domain conjugate. […]
Data were processed and analyzed using Graph Pad Prizm 4™ software (Graph Pad Prizm, Inc). Statistical analysis for significance was determined by a two-tailed Student's T-test. […]

[2] = test system: OVCAR-3; assay: IC50 in OVCAR-3 ovarian cancer cell line; type: cell-based, human
Protocol: MDA-MB435S.luc cells were grown in Leibovitz's L 15 medium, 10% fetal bovine serum, 0.01 mg/ml bovine insulin, 100 IU/ml penicillin, 100 microg/ml streptomycin. The cells were cultured in tight closed flasks. The incubations were conducted using 96 well plates at 10,000 cells per well. Cells were typically seeded into 96 well plates and media was replaced after 48 hours of incubation. Each assay was conducted at increasing concentrations of 0, 0.001, 0.01, 0.05, 0.1, 0.5, 1, 2, 5, 10 and 100 micromolar doses of lytic peptide-binding domain conjugate. Each lytic peptide-binding domain conjugate provided in lyophilized form and was freshly dissolved in saline and added to cells. The duration of incubation was typically 24 h, and cell viability assays were conducted using formazan conversion assays (MTT assay). Controls contained saline or 0.1% triton as reference for 0 and 100% cell death, respectively.
To ascertain the IC50 of various fusion constructs on different human cancer cell lines compared to cisplatinum, IC50 of fusion constructs were evaluated as in Table 3.

[3] = test system: MDA-MB-435S.luc xenograft; assay: MDA-MB-435S.luc xenograft, LHRH fusion constructs; type: in vivo, Nu/Nu mice
Protocol: For LHRH fusion constructs, the mouse xenograft model for breast cancer was used. In brief, Nu/Nu female mice, outbred strain, age 5 weeks (Charles River) were injected subcutaneously with a MDA-MB-435S.luc/Matrigel suspension (1×10^6 cells). Treatment was started on day 21 after tumor cell injection and continued on day 26 and 29. The doses for weekly fusion construct injections were 2, 0.2 and 0.02 mg/kg body weight, given as a bolus single injection. All mice were necropsied 34 days after tumor cell injection-baseline values for tumor weights were obtained by sacrificing 8 mice at treatment start. […] Tumor weights were recorded at necropsy, part of the tumors were frozen at −80° C. for luciferase assay determination.
Characteristics of tumors at necropsy are summarized in FIG. 10: (A) tumor weight, (B) changes of tumor weights compared to baseline, (C) total number of live tumor cells, (D) changes of total live tumor cells compared to baseline, and (E) body weights at baseline and necropsy. Viability of tumor cells was determined at the end of the study when tumors were measured for luciferase activity. Treatment efficacy was calculated as difference between measurements at the beginning of treatment compared to the measurement at the end of study (FIGS. 10B and 10D).

[4] = test system: OVCAR-3 cells; type: cell-based, human; settings: OVCAR-3 p47, series with increasing incubation time (times not given per value)
From the text: Membranes of non-cancerous cell lines are neutral and are resistant to cytolytic peptides, in contrast to cancer cell lines, which have a high phosphatidic acid content in their outer membrane.
(§1) The breast cancer cell lines studied were MDA-MB435S (estrogen receptor alpha negative), MCF-7 and T47D (estrogen receptor alpha positive), ovarian cancer cell lines (OVCAR-3 and SKOV-3), prostate cancer (LNCaP), the non-malignant breast epithelial cell line MCF-10A and the mouse fibroblast cell line NIH:3T3.
Cells were seeded into 96 well plates at a density of 10,000 cells/well. […] Controls contained USP saline or 0.1% TritonX-100™ as reference for 0 and 100% cell death, respectively. […] Cell viability was assessed through formazan conversion assay (MTT assay, (CellTiter 96 Aqueous One, Promega # G3582). Formazan conversion was determined using a BioRad Benchmark Plus microplate spectrophotometer dual wavelengths at 490/630 nm at room temperature).
(§2) Data were calculated as fraction of absorption in TritonX-100™ containing wells representing 100% cell death versus 0% cell death in saline containing wells. Cytotoxicity was determined as IC50 using GraphPad Prism version 5.01 for Windows, GraphPad Software, San Diego Calif. […] 4 wells of each individual set of two 96 well plates were compared and analyzed. Statistical analysis for significance was determined by a two-tailed Student's T-test.

[5] = test system: NIH:3T3; type: cell-based, mouse; settings: non cancerous cell line 3T3
Protocol: as §1
Cells were seeded into 96 well plates at a density of 10,000 cells/well. […] Controls contained USP saline or 0.1% TritonX-100™ as reference for 0 and 100% cell death, respectively. Incubations were terminated by removing the culture media after 2 minutes, 5 minutes, 15 minutes, 30 minutes, 1 hour, 2 hours, 6 hours, 24 and 48 hours. Cell viability was assessed through formazan conversion assay (MTT assay, (CellTiter 96 Aqueous One, Promega # G3582). Formazan conversion was determined using a BioRad Benchmark Plus microplate spectrophotometer dual wavelengths at 490/630 nm at room temperature).
as §2

[6] = test system: MDA-MB-435 cells; assay: Fluorescence microscopy, MDA-MB-435 breast cancer cells; type: cell-based, human; settings: 10 μM, 5 minutes exposure
Protocol: In brief, human breast cancer cells (MDA-MB435, passage #252) were seeded onto culture dishes. The following markers were introduced prior to adding EP100: DRAQ5™ (Alexis Corporation)—blue—was used for staining of the nucleus and MitoTracker® Red CMXRos (M7512) (Molecular Probes, Inc. OR) were applied for visualizing intact mitochondria. Cell membranes were stained with wheat germ alexa fluor green conjugates (Molecular Probes, Inc. OR).
Cells were loaded first with Mitotracker dye, according to the manufacturers recommendation. […] Culture dishes with saline only served as controls. The supernatant was removed and the remaining cells prepared for fluorescence microscopy imaging.

[7] = test system: MDA-MB-435S xenograft; assay: MDA-MB-435S xenograft, once weekly for 3 weeks (minimal effective dose); type: in vivo, Nu/Nu mice; settings: H&E
Protocol: (§3) In vivo efficacy studies were conducted as monotherapy, or a combination therapy with standard of care treatments in nude mice bearing human breast cancer xenografts: MDA-MB435S.luc (s.c.), MCF-7 (estrogen receptor alpha positive), human ovarian cancer xenografts: OVCAR-3, (s.c.), human prostate cancer xenografts: PC-3 (androgen receptor negative).
(§4) Mice were sacrificed one week after the last injection and blood collected for chemistry panel, tumor weights and body weights were recorded. Part of the tumors were fixed in PBS buffered 10% formalin for histological evaluation.
To determine the minimal effective dose necessary to reduce MDA-MB-435S xenograft weights in a single dose regimen, Nu/Nu female mice, outbred strain, age 5 weeks (Charles River), were injected (s.c.) into the interscapular region with a MDA-MB435S (passage #249)/Matrigel suspension (2.4×10^6 cells/mouse) [Leuschner 2006].
Each group consisted of 16 mice, which were injected once a week for 3 weeks. […] During the entire study tumor volumes were recorded twice weekly. […]
Treatment response was determined by tumor weights and tumor weight change at necropsy compared to saline controls and untargeted CLIP71 treatment. […] Statistical evaluation of data sets were conducted in GraphPad Prizm 4 and significance calculated by Wilcoxon signed-rank test.

[8] = test system: MDA-MB435S xenograft; assay: MDA-MB435S xenograft, multiple dose regimen; type: in vivo, Nu/Nu mice; settings: 0.002 and 0.2 mg/kg, multiple i.v. injections
Protocol: In order to determine the minimal effective dose necessary to reduce MDA-MB435S xenograft weights in a multiple dose regimen, Nu/Nu female mice, outbred strain, age 8 weeks (Charles River), were injected (s.c.) into the interscapular region with a MDA-MB435S (passage #253)/Matrigel suspension (2×10^6 cells/mouse) as previously described above. […] The doses were given as a single bolus intravenous injection via lateral tail vein on days 15, 16, 17, 20, 21, 22, 23, 27, 28, 29, 30, 33, 34, 35, 36, 37, 38, 40, 41, 42 after tumor cell inoculation. Saline injections served as control groups.
Each treatment group consisted of 16 mice. During the entire study tumor volumes were recorded twice weekly. Final necropsy was conducted on day 45 after tumor cell injection. […] due to occlusion of the tail vein in most mice. At study endpoint body weight, tumor weights were determined and fixed in phosphate buffered 10% formalin.

[9] = test system: MDA-MB-435S xenograft; assay: MDA-MB-435S xenograft, kinetics after a single injection; type: in vivo, Nu/Nu mice; settings: single i.v. injection 0.2 and 2 mg/kg
Protocol: In brief, Nu/Nu female mice, outbred strain, age 5 weeks (Charles River), were injected (s.c.) into the interscapular region with a MDA-MB-435 S (passage #249)/Matrigel suspension (2.4×10^6 cells/mouse) as described in Example 10. […] The doses were given as a single bolus intravenous injection via lateral tail vein.
Mice were sacrificed 1, 2 and 16 hours after treatment with Phor 18-LHRH (338613) or saline. At study endpoint body weight, tumor weights were determined and tumors were fixed in phosphate buffered 10% formalin.

[10] = test system: NIH:OVCAR-3 xenograft; assay: OVCAR-3 ovarian cancer xenograft; type: in vivo
Protocol: The xenograft model of the OVCAR-3 human ovarian cancer cell line that present functional LHRH receptors was used in this study. OVCAR-3 represents a slow growing xenograft model and secretes the tumor marker (cancer antigen 125, or […]). It's secretion can be used as treatment response and is a measure of drug activity.
In brief, Nu/Nu female mice, inbred strain, age 5 weeks (Harlan-Sprague Dawley) were injected subcutaneously with a NIH:OVCAR-3 cells/Matrigel suspension (4.6×10^6 cells/mouse). Treatment was started on day 33 after tumor cell injection when the tumors were established and continued on days 41 and 47. The doses for the 3 weekly injections were 0.02, 0.2 and 2 mg/kg body weight, given as a single bolus intravenous injection via lateral tail vein administered once a week for three weeks on days 33, 41 and 47. Necropsies were conducted on day 52. Data are presented as mean SEM. Arrows show dosing.
A group of 9 tumor bearing mice was sacrificed on day 33 and served as baseline group. All mice were necropsied 51-52 days after tumor cell injection. Tumor volumes and bodyweights were recorded twice weekly during the study, as well as overall veterinarian examination of mice was conducted.
(§5) Primary tumors, liver, kidney, pancreas, heart, lung, and spleen were collected, fixed in formalin and prepared for histological evaluation. Tumor weights were measured at necropsy, part of the tumors were frozen at −80° C. for LH/CG and LHRH receptor assay determination.
As a biomarker for drug activity, CA125 was determined in serum, collected from each individual mouse at necropsy using a Enzyme Linked Immunoassay for quantitative determination of ovarian cancer antigen CA125 (Assay kit Genway, Biotech, Inc. San Diego, Calif., Catalog #40-052-115009, # BC-1013 according to the manufacturer).
LHRH receptor levels were assessed from formalin fixed tumors. Quantitative immunoperoxidase image analysis was conducted with the Ventana Image Analysis System (VIAS) adjunctive computer assisted image analysis system functionally connected to an interactive microscope (Axio Imager). The quantitative analysis was conducted with the program for quantification of Her2/neu receptor that included morphometric and colorimetric analysis. Receptor status results were reported as percentage of cells showing positive staining of the LHRH receptors under the following criteria: 0 non-immunoreactive, 1+: 1-25% positive, 2+: 26-50% positive, 3+: 51-75% positive cells.

[11] = test system: PC-3 xenograft; assay: PC-3 prostate cancer xenograft; type: in vivo, Nu/Nu mice
Protocol: PC-3 xenografts untreated cause significant weight loss in mice.
In brief, Nu/Nu male mice, outbred strain, age 6 weeks (Charles River) were injected subcutaneously with a PC-3 cells/Matrigel suspension (1×10^6 cells/mouse). Treatment was started on day 15 after tumor cell injection when the tumors were established and continued on days 22 and 29. […]
A group of 12 tumor bearing mice was sacrificed on day 15 and served as baseline group. All mice were necropsied 35 and 36 days after tumor cell injection. Tumor volumes and bodyweights were recorded twice weekly during the study, as well as overall veterinarian examination of mice was conducted.
as §5

[12] = test system: MCF-7 xenograft; assay: MCF-7 breast cancer xenograft; type: in vivo, nude mice; settings: 2 × 3 wk, 19 d, growth delay
Protocol: as §3
PHOR 18-LHRH (338613) Combination therapies were conducted in a MCF-7 breast cancer xenograft models.
as §4

Sequence: KFAKFAKKFAKFAKKFAKQHWSYGLRPG [Phor18-LHRH]
- Increased in vitro activity fold (IC50 of 33/IC50 peptide) [1]: 2.65 fold
- IC50 [2]: 3000 ± 500 nM
- tumor volume during treatment / 30 days ([3]; 0.02, 0.2, 2 mg/kg weekly): smallest tumor volumes
- overall efficacy in reducing tumor weight and live tumor cells (vs other constructs / reference Phor21-βCG-ala) ([3]; mouse, in vivo): Equally effective
- IC50 [4]: 500 nM
- IC50 [5]: > 10000 nM
- effect on plasma membrane (fluorescence microscopy) [6]: disintegration of the plasma membrane
- dose with significant necrosis in tumors (histology) [7]: 0.0002 mg/kg
- tumor response [8]: tumor regression at both dose levels; also recorded: eradication of tumor cells
- time after injection to destruction of tumors (histology) [9]: 1 hour
- dose with significant necrosis in tumor sections ([10]; H&E): 0.02 mg/kg
- Median Tumor Weight vs Baseline p < 0.05 (dose) ([10]; OVCAR-3 xenograft, 1 × 3 wk, 20 d): 0.2 mg/kg
- tumor volume during treatment ([10]; Phor18-LHRH 0.02-2 mg/kg, CLIP71 2 mg/kg, cisplatinum 10 mg/kg): Tumor volumes decreased during treatment
- serum CA125 ([10]; greatest at 0.2 and 2 mg/kg (p<0.0002 vs saline)): CA125 secretion was reduced
- tumor weights at necropsy ([10]; mouse, in vivo): Tumor free mice were found
- Median Tumor Weight vs Baseline p < 0.05 (dose) ([11]; PC-3 xenograft, 1 × 3 wk, 21 d): 0.2 mg/kg
- tumor volume during treatment ([11]; Phor18-LHRH 0.002-2 mg/kg, CLIP71 5 mg/kg): Tumor volumes decreased during treatment
- Median Tumor Weight vs Saline P < 0.05 (dose) [12]: 0.02 mg/kg growth
